From publication PMC12040169 (PLOS Biology, 2025) come the findings set out here.

Each structure is given as a SMILES string.

A short description of this data set: in vitro. The note with it: human, hela cells.

`CSCC[C@H](NC(=O)Nc1ccc(N2CCC(C)CC2)cc1)C(=O)O` [CBK286743]: the viability at 28.5 h, 10 µM (% viability) came to 86%.

Take `Cc1ccc(-c2cc(C(=O)NCCCN3CCOCC3)c3cc(Cl)ccc3n2)o1` [CBK267737]: where the note is “% viability”, the viability at 28.5 h, 10 µM worked out at 108%. Take `Cc1cc(S(=O)(=O)NC(=O)CC2CCOc3ccccc32)c(C)o1` (centres unmarked) [CBK304499]: the viability at 28.5 h, 10 µM (% viability) amounted to 105%. Same read-out and setting: the figure for `CC1(C)COC(=O)N1C1CCN(C(=O)CNC(=O)c2cccs2)CC1` [CBK044501] is 93.1%; for `C=CCn1c(SCC(=O)Nc2ccccn2)nnc1-c1ccc(Br)cc1` [CBK022413] it is 96.3%; for `COCC1(C(=O)N(C)Cc2nnc(-c3ccccc3)o2)CCC1` [CBK306987] it is 109%. In the case of `Nc1nc2c(ccn2[C@H]2C[C@@H](O)[C@@H](CO)O2)c(=O)[nH]1` [CBK201238], the viability at 28.5 h, 10 µM (% viability) came to 100%. As for `CCCCC1CCC(C(=O)Oc2ccccc2OCCO)CC1` (centres unmarked) [CBK081498], the viability at 28.5 h, 10 µM (% viability) is 90.6%.

For the molecule `Nc1nonc1OCC(COc1nonc1N)(COc1nonc1N)COc1nonc1N` [CBK011044], the viability at 28.5 h, 10 µM was found to be 85.6%.

In the case of `CN(C)CCN(C(=O)Cc1ccc2c(c1)CCC2)C1CCN(C)CC1` [CBK282182], the viability at 28.5 h, 10 µM (% viability) worked out at 84.6%. Same read-out and setting: the figure for `O=C1CC2(CCCC2)C(=O)N1c1ccc(S(=O)(=O)NC2CCN(Cc3ccccc3)CC2)cc1Cl` [CBK074650] is 99.8%. For the molecule `COc1ccc([C@@]23CC[C@@H](NC(=O)Nc4nc(Cl)cc(Cl)n4)C[C@@H]2N(C)CC3)cc1OC` [CBK067083T], for the setting “% viability”, the viability at 28.5 h, 10 µM came out at 96.3%.

Consider `O=C(CC(NC1CCCC1)C(=O)O)Nc1cccc(Cl)c1` (centres unmarked) [CBK266831], for which the viability at 28.5 h, 10 µM (% viability) was 105%.

Consider `CC(=O)Nc1ccc(OCC(O)Cn2ncc3ccccc3c2=O)cc1` (centres unmarked) [CBK305567], for which the viability at 28.5 h, 10 µM (% viability) was found to be 105%.

`COCc1nc(NCCCn2c(C)cccc2=O)cc(C2CCOC2)n1` (centres unmarked) [CBK306845]: the viability at 28.5 h, 10 µM (% viability) was 90.9%.

For `CCCn1c(SCc2csc(COc3ccc(Cl)cc3)n2)n[nH]c1=O` [CBK295140], where the note is “% viability”, the viability at 28.5 h, 10 µM was 82.3%. In the case of `CC(=O)NC(c1nccs1)C1CCN(C(=O)C(C)(C)C)CC1` (centres unmarked) [CBK284677], the viability at 28.5 h, 10 µM (% viability) turned out to be 88.9%. Take `Fc1ccc(C2(CCCN3CCN(c4ccncc4)CC3)OCCO2)cc1` [CBK038887]: the viability at 28.5 h, 10 µM (% viability) is 111%. Consider `CC[C@H](Cn1c(=O)oc2ccccc21)NC(=O)Cc1ccsc1` [CBK284543], for which, where the note is “% viability”, the viability at 28.5 h, 10 µM was 89.2%. Same read-out and setting: the figure for `Cc1c(CN(C)CC2CCN(C)C2)cnn1Cc1ccccc1` (centres unmarked) [CBK282616] is 105%; for `Cc1nc(CC(=O)N2CCCC(c3cccc(Cc4ccc(Cl)cc4)n3)C2)cs1` (centres unmarked) [CBK286505] it is 94.3%. As to `COc1cccc(C(=O)Nc2ccc(O)cc2C(=O)O)c1` [CBK268662], for the setting “% viability”, the viability at 28.5 h, 10 µM is 104%. On the same count and under the same terms, the figure for `O=C(Cc1csc(-c2ccc(Cl)cc2)n1)Nc1cccnc1` [CBK107300] is 101%; for `Cc1cc(NC(=O)c2ccc(S(=O)(=O)N(C)C)cc2)nc2c1c(=O)oc1ccccc12` [CBK291135] it is 104%; for `CC1CCn2c3c(c4cccc1c42)CCNCC3` (centres unmarked) [CBK018012C] it is 97.4%. With `COc1ccc(Br)cc1S(=O)(=O)Nc1nc(C)c(C(=O)O)s1` [CBK045558], the viability at 28.5 h, 10 µM (% viability) came out at 106%. Consider `CN(C)c1ccc(Nc2cc(Cl)nc3ccnn23)cc1` [CBK037203], for which the viability at 28.5 h, 10 µM (% viability) was found to be 98.3%.

Turning to `CCOC(=O)C(NC(=O)c1cn[nH]c1)c1cccc(C)c1C` (centres unmarked) [CBK304175], under “% viability”, the viability at 28.5 h, 10 µM stood at 92.8%. For the molecule `Cc1cc(S(=O)(=O)NCc2cc(F)c(F)c(F)c2)c(C)cc1Cl` [CBK043813], the viability at 28.5 h, 10 µM (% viability) worked out at 85%.

For `Cc1nc2c(c(=O)[nH]1)CCN(Cc1ccc(Cl)c(Cl)c1)C2` [CBK283969], under “% viability”, the viability at 28.5 h, 10 µM was found to be 81.6%. On to `CCc1onc(C)c1C(=O)NCC1CCCCN1CC(C)C` (centres unmarked) [CBK305124], for which the viability at 28.5 h, 10 µM (% viability) stood at 106%. Regarding `CCC1c2cccn2CCN1Cc1cncn1CC` (centres unmarked) [CBK283012], the viability at 28.5 h, 10 µM (% viability) came out at 85.8%. For `CC(C)c1ccc(/C=C/C(=O)N2CCN(C3CCN(C)CC3)CC2)cc1` [CBK149094], where the note is “% viability”, the viability at 28.5 h, 10 µM is 105%. As for `CCOc1ccc(-c2cn(S(=O)(=O)c3cccc4nsnc34)nc2N)cc1` [CBK267883], the viability at 28.5 h, 10 µM (% viability) amounted to 102%. In the case of `CN(CCC1CCOCC1)c1nc2c(c(=O)[nH]1)Cc1ccccc1OC2` [CBK306622], under “% viability”, the viability at 28.5 h, 10 µM was determined as 96.2%. For `Cc1ccc(OCC(=O)O/N=C(\N)Cc2ccc([N+](=O)[O-])cc2)c(C)c1` [CBK263102], the viability at 28.5 h, 10 µM (% viability) was 101%.

With `O=C(c1csnn1)N1Cc2ccccc2C1` [CBK200325], the viability at 28.5 h, 10 µM (% viability) stood at 111%.

Consider `CSc1nc2ncnc(N3CCC(O)CC3)c2s1` [CBK022082], for which the viability at 28.5 h, 10 µM (% viability) was determined as 84.4%. Turning to `Cn1cc(CCNC(=O)N2CCN(Cc3ccsc3)CC2)cn1` [CBK305692], the viability at 28.5 h, 10 µM (% viability) worked out at 88.6%. Same read-out and setting: the figure for `CC(=O)NC1(CC(=O)N2CC[C@H]3NC(=O)COc4ccccc4C/C=C/C[C@H]3C2)CCCCC1` [CBK292117] is 91.3%; for `CCc1nc2ccc(C(=O)N3CCNC(=O)C3)cn2c1N(CCC(C)C)CCN(C)C` [CBK146255] it is 92.4%; for `COc1cccc(OCc2ccc(Cn3ccn(C(=O)CCCC(C)C)c3=O)cc2)c1` [CBK106638] it is 90.5%. Consider `CC(=O)N1CCN(C[C@@H]2C=C(C)[C@H](Cc3nnc(C(C)(C)C)o3)C[C@H]2C(C)C)CC1` [CBK289221], for which, where the note is “% viability”, the viability at 28.5 h, 10 µM was 86%.

Turning to `CC1Cc2cc(CC(=O)N(C)CC(F)(F)F)ccc2O1` (centres unmarked) [CBK283067], the viability at 28.5 h, 10 µM (% viability) came to 109%. Regarding `CS(=O)(=O)c1cccc(-c2nnc(NC(=O)c3ccccc3)o2)c1` [CBK287726], the viability at 28.5 h, 10 µM (% viability) was 82.4%.

Take `FC(F)(F)c1cccc(CSc2nc3ccccc3nc2N2CCCC2)c1` [CBK107190]: the viability at 28.5 h, 10 µM (% viability) stood at 91.5%. Take `CN(C)CCCC(=O)Nc1cccc2[nH]ccc12` [CBK159660]: the viability at 28.5 h, 10 µM (% viability) is 99.9%. Regarding `O=[N+]([O-])c1ccc2c(c1)C=C1CCCCC1(NCc1ccccc1)O2` (centres unmarked) [CBK262716], the viability at 28.5 h, 10 µM (% viability) was determined as 98.8%.

Turning to `Cn1c(/N=N/c2c(-c3ccccc3)n(C)c3ccccc23)nc2ccccc21` [CBK262114], for the setting “% viability”, the viability at 28.5 h, 10 µM came to 81.2%. For the molecule `Clc1cc2nc(Sc3ccccn3)c(N3CCCC3)nc2cc1Cl` [CBK093754], where the note is “% viability”, the viability at 28.5 h, 10 µM amounted to 100%.

For `Cc1nonc1OCCN1CCN(c2cc3c(cc2[N+](=O)[O-])n(C)c(=O)n3C)CC1` [CBK267676], the viability at 28.5 h, 10 µM (% viability) amounted to 104%. Regarding `Cc1ccc(-c2noc(CN(C(=O)CCc3ccccc3)C(C)C)n2)cc1` [CBK269313], the viability at 28.5 h, 10 µM (% viability) was determined as 99.3%. For `O=C(NCCc1ccco1)c1ncoc1-c1ccc(F)cc1` [CBK282247], the viability at 28.5 h, 10 µM (% viability) amounted to 104%. As to `CCc1c(C)nc2c(N3CCOC3=O)cccc2c1SCCC(=O)O` [CBK159595T], the viability at 28.5 h, 10 µM (% viability) is 91.7%. With `COCCNc1nccnc1-c1ccccc1F` [CBK038044], the viability at 28.5 h, 10 µM (% viability) turned out to be 97.6%.

For the molecule `Cc1cc(NC(=O)CN2CCC(CSc3ccccc3)C2)no1` (centres unmarked) [CBK306136], under “% viability”, the viability at 28.5 h, 10 µM amounted to 92.4%. Still for that read-out and setting: the figure for `Clc1cccc(-c2cncc(NCC3CCOCC3)n2)c1` [CBK037237] is 103%; for `Cc1ccccc1C(=O)Nc1cc(NC(=O)c2ccccc2C)cc(C(=O)O)c1` [CBK262007] it is 109%; for `CCN(C(=O)c1ccc(=O)[nH]c1)C(CC1CCCCC1)c1ccccc1` (centres unmarked) [CBK062678] it is 91.1%.

With `COc1ccc2[nH]cc(CCNC(=O)[C@H](CC(C)C)NC(C)=O)c2c1` [CBK116210], under “% viability”, the viability at 28.5 h, 10 µM was 107%. Regarding `Cc1nc2c(c(=O)[nH]1)CN(CC1CCCCC1)CC2` [CBK283947], the viability at 28.5 h, 10 µM (% viability) was 86.7%. As to `CCc1c(C)sc2ncn(C3CCNCC3)c(=O)c12` [CBK282972], the viability at 28.5 h, 10 µM (% viability) came out at 81.2%. Consider `Cc1cccc(-c2ncc(C(=O)NCCc3c[nH]cn3)cc2-c2ccncc2)c1` [CBK036678], for which the viability at 28.5 h, 10 µM (% viability) was 86.9%. Turning to `COCCn1nnnc1C(c1cc2cc(C)cc(C)c2[nH]c1=O)N1CCOCC1` (centres unmarked) [CBK068815], the viability at 28.5 h, 10 µM (% viability) amounted to 95.3%. For the molecule `CN(C(=O)C1CC1)C1CCN(c2ncnc3ccccc23)CC1` [CBK304946], for the setting “% viability”, the viability at 28.5 h, 10 µM amounted to 80%. The same measure, in the same setting: the figure for `N#Cc1ccsc1NC(=O)CSc1nnc[nH]1` [CBK267221] is 87.7%; for `NS(=O)(=O)c1ccc(-c2nc(-c3ccccc3)no2)cc1` [CBK269957] it is 87.8%; for `CSCc1ccc(C(=O)Nc2cc(C(=O)O)ccc2C)cc1` [CBK297107] it is 93%.

As to `COc1ccc(S(=O)(=O)N2CCN(c3ccccc3F)CC2)cc1` [CBK070377], the viability at 28.5 h, 10 µM (% viability) is 87.1%. Turning to `CN(C)CCN(C)C(=O)c1ccc(-c2cccc(C(=O)NCCO)c2)nc1NCC1CC1` [CBK076603], under “% viability”, the viability at 28.5 h, 10 µM worked out at 94%.

With `COc1ccc(C)cc1S(=O)(=O)N(C)CC(=O)Nc1cccc(Cl)c1` [CBK269493], the viability at 28.5 h, 10 µM (% viability) came out at 88.5%.

Turning to `NCCCC(C(=O)O)C(=O)c1ccccc1-c1ccccc1` (centres unmarked) [CBK286941], the viability at 28.5 h, 10 µM (% viability) worked out at 99.2%. In the case of `Cc1c(C(=O)N(C)Cc2cc3ccccc3o2)nnn1C1CCNCC1` [CBK304307C], the viability at 28.5 h, 10 µM (% viability) came out at 96.4%. In the case of `Cc1onc(-c2ccccc2)c1NC(=O)Nc1cc2ccccc2c(Br)n1` [CBK105489], the viability at 28.5 h, 10 µM (% viability) was 96.5%. Still for that read-out and setting: the figure for `Cc1nc(C(F)(F)F)ccc1COC(=O)N1CCOCC1` [CBK200122] is 85.9%. With `O=C(Nc1ccccc1F)N1CCC2(CC1)OCc1cc(-c3ccco3)ccc1O2` [CBK060597], the viability at 28.5 h, 10 µM (% viability, bulk resorufin, single well) turned out to be 92%. `Cc1cc(C)n(CC(O)CN2C(=O)NC(C)(C)C2=O)n1` (centres unmarked) [CBK264811]: where the note is “% viability”, the viability at 28.5 h, 10 µM is 107%. `Cc1cc2nnn(C[C@@H](C)NC(=O)c3ccco3)c2cc1C` [CBK282366]: the viability at 28.5 h, 10 µM (% viability) is 100%. Still for that read-out and setting: the figure for `O=c1[nH]ccn1CCNc1ccc(-c2cccc(Cl)c2Cl)cn1` [CBK037745] is 93.1%.

Turning to `CCOc1ccc(S(=O)(=O)NCc2ccncc2)cc1NC(C)=O` [CBK269527], where the note is “% viability”, the viability at 28.5 h, 10 µM amounted to 88%.
